What was measured:
[1] = anaesthetic activity tests (intravenous administration); format: in vivo; conditions: compound and salts
Excerpt: In the tests we have carried out, the compounds of the invention have been shown generally to be good anaesthetics, usually giving instantaneous induction of anaesthesia when administered intravenously. […] The compounds of the invention are of use for inducing anaesthesia which is to be maintained for example by an inhalation anaesthetic, such as ether, halothane, nitrous oxide or trichloroethylene. The compounds may also be capable of maintaining anaesthesia to a sufficient degree to enable surgical operations to be conducted without the aid of an inhalation anaesthetic, the anaesthesia being maintained if necessary by repeated or continuous administration. The compounds may have other desirable central nervous system depressant activities, for example they may be of use as sedatives.

[2] = dissolution of the 11β-aminoester salts in aqueous acid (Table 5 and Examples 101, 225-229); format: physicochemical; conditions: method C: ethanol evaporated, residue in water, undissolved material weighed; WT. of solution Ex. 118: 10; 120: 10.4; 148: 9.54; 152: 5.6; 154: 9.1; 155: 8.77; 156: 9.06; 157: 9.5; 158: 9.38; 159: 9.17; 179: 9.65; 180: 11.7; 182: 4.9; 202: 12.05; 213: 12; 214: 11.5; 215: 11.1; 216: 11.6; 217: 12.1 g
How it was run: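 11β-Aminoester free base combined with 1 molar part of acid (citric acid as monohydrate) in water, with extra acid or prior ethanol co-evaporation in some methods. Solution made up to set weight, undissolved base collected and weighed to calculate dissolved amount. Solution pH measured.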

pH of the salt solutions = format: physicochemical; conditions: aqueous solution of the salt, Table 5
How it was run: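 Aminoester free base mixed with 1 molar part acid in water, stirred or shaken, with extra acid or ethanol evaporation in some methods, then made up with water to set weight. Undissolved base collected and weighed to calculate dissolved base; solution membrane-filtered and pH measured.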

SMILES: CCCCN(CC)CC(=O)O[C@H]1C[C@]2(C)[C@@H](C(C)=O)CC[C@H]2[C@@H]2CC[C@H]3C[C@H](O)CC[C@]3(C)[C@H]21 [Example 115, 11β-(N-Butyl-N-ethylaminoacetoxy)-3α-hydroxy-5α-pregnan-20-one]
- activity shown in our tests (preference grade) ([1]; listed as Compound No. 12): especially preferred

SMILES: CCO[C@H]1C[C@@]2(C)[C@@H](CC[C@@H]3[C@@H]2[C@@H](OC(=O)CN(CC)CC)C[C@]2(C)[C@@H](C(C)=O)CC[C@@H]32)C[C@@H]1O [Example 101, 2β-Ethoxy-11β-diethylaminoacetoxy-3α-hydroxy-5α-pregnan-20-one]
- activity shown in our tests (preference grade) ([1]; listed as Compound No. 6): especially preferred

SMILES: CCO[C@H]1C[C@@]2(C)[C@@H](CC[C@@H]3[C@@H]2[C@@H](OC(=O)CNC(C)CC(C)C)C[C@]2(C)[C@@H](C(C)=O)CC[C@@H]32)C[C@@H]1O (stereo partly drawn) [compound 29, 2β-ethoxy-3α-hydroxy-11β-N-1',3'-dimethylbutylaminoacetoxy-5α-pregnan-20-one]
- activity shown in our tests (preference grade) [1]: particularly preferred on account of the activity shown in our tests

SMILES: CC(=O)[C@H]1CC[C@H]2[C@@H]3CC[C@H]4C[C@H](O)CC[C@]4(C)[C@H]3[C@@H](OC(=O)CNCC(C)(C)C)C[C@]12C [Example 34, 11β-N-2',2'-dimethylpropylaminoacetoxy-3α-hydroxy-5α-pregnan-20-one]
- activity shown in our tests (preference grade) [1]: particularly preferred on account of the activity shown in our tests

SMILES: CCN(CC(=O)O[C@H]1C[C@]2(C)[C@@H](C(C)=O)CC[C@H]2[C@@H]2CC[C@H]3C[C@H](O)CC[C@]3(C)[C@H]21)C(C)CC(C)C (stereo partly drawn) [compound 23, 11β-N-1',3'-dimethylbutyl-N-ethylaminoacetoxy-3α-hydroxy-5α-pregnan-20-one]
- activity shown in our tests (preference grade) [1]: particularly preferred on account of the activity shown in our tests

SMILES: CCCCN(C)CC(=O)O[C@H]1C[C@]2(C)[C@@H](C(C)=O)CC[C@H]2[C@@H]2CC[C@H]3C[C@H](O)CC[C@]3(C)[C@H]21 [Example 111, 11β-(N-Butyl-N-methylaminoacetoxy)-3α-hydroxy-5α-pregnan-20-one]
- activity shown in our tests (preference grade) ([1]; listed as Compound No. 10): especially preferred

SMILES: CC(=O)[C@H]1CC[C@H]2[C@@H]3CC[C@H]4C[C@H](O)CC[C@]4(C)[C@H]3[C@@H](OC(=O)CN3CCCCCC3)C[C@]12C [Example 159]
- Dissolved aminoester [2]: 91.7 mg
- pH (pH of the salt solutions): 3.55

— patent publication US4192871A, “Chemical compounds” (Glaxo Laboratories Limited, priority 1976, dated 1980)
